From PubChem BioAssay AID1963427 (Molecular Pharmacology Branch, DTP, NCI, 2024)
Values joined by “and” are separate entries in the source; they are usually repeats but may differ in a detail not shown here. Equal entries are not always repeated.

Tested on: 317291-083-R-J1-PDC complex spheroid growth
Experiment: Anticancer human tumor 317291-083-R-J1-PDC patient-derived soft tissue sarcoma cell line growth inhibition [Asc]
Conditions: for viability, T/C: stronger effect = lower value
In short: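 Tumor cells were grown as multicellular spheroids with stromal HUVEC and mesenchymal stem cells and treated singly or in combination. Concentrations fell in half-log steps from the clinical Cmax, or from 10 microM where none was known.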

[1] = curve of first compound, second compound 0.00316 µM
[2] = curve of first compound, second compound 0.01 µM
[3] = curve of first compound, second compound 0.0316 µM
[4] = curve of first compound, second compound 0.1 µM
[5] = curve of first compound, second compound 0.316 µM
[6] = curve of first compound, second compound 1 µM
[7] = second compound 0.00316 µM, first compound 0.0316 µM
[8] = second compound 0.00316 µM, first compound 0.1 µM
[9] = second compound 0.00316 µM, first compound 0.316 µM
[10] = second compound 0.00316 µM, first compound 1 µM
[11] = second compound 0.01 µM, first compound 0.0316 µM
[12] = second compound 0.01 µM, first compound 0.1 µM
[13] = second compound 0.01 µM, first compound 0.316 µM
[14] = second compound 0.01 µM, first compound 1 µM
[15] = second compound 0.0316 µM, first compound 0.0316 µM
[16] = second compound 0.0316 µM, first compound 0.1 µM
[17] = second compound 0.0316 µM, first compound 0.316 µM
[18] = second compound 0.0316 µM, first compound 1 µM
[19] = second compound 0.1 µM, first compound 0.0316 µM
[20] = second compound 0.1 µM, first compound 0.1 µM
[21] = second compound 0.1 µM, first compound 0.316 µM
[22] = second compound 0.1 µM, first compound 1 µM
[23] = second compound 0.316 µM, first compound 0.0316 µM
[24] = second compound 0.316 µM, first compound 0.1 µM
[25] = second compound 0.316 µM, first compound 0.316 µM
[26] = second compound 0.316 µM, first compound 1 µM
[27] = second compound 1 µM, first compound 0.0316 µM
[28] = second compound 1 µM, first compound 0.1 µM
[29] = second compound 1 µM, first compound 0.316 µM
[30] = second compound 1 µM, first compound 1 µM
[31] = second compound 0.00316 µM, first compound 0.00316 µM
[32] = second compound 0.00316 µM, first compound 0.01 µM
[33] = second compound 0.01 µM, first compound 0.00316 µM
[34] = second compound 0.01 µM, first compound 0.01 µM
[35] = second compound 0.0316 µM, first compound 0.00316 µM
[36] = second compound 0.0316 µM, first compound 0.01 µM
[37] = second compound 0.1 µM, first compound 0.00316 µM
[38] = second compound 0.1 µM, first compound 0.01 µM
[39] = second compound 0.316 µM, first compound 0.00316 µM
[40] = second compound 0.316 µM, first compound 0.01 µM
[41] = second compound 1 µM, first compound 0.00316 µM
[42] = second compound 1 µM, first compound 0.01 µM
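Also: compound exposure lasted seven days after spheroids formed for three days.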
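For viability, T/C in this document: 100% = DMSO vehicle control wells.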

C=CC(=O)N1CCN(c2nc(=O)n(-c3c(C)ccnc3C(C)C)c3nc(-c4c(O)cccc4F)c(F)cc23)C(C)C1 (stereo not drawn) + CNC(C)C(=O)NC1CN(S(=O)(=O)c2cccc(S(=O)(=O)N3CCC4CCC(C(=O)NC(c5ccccc5)c5ccccc5)N4C(=O)C(NC(=O)C(C)NC)C3)c2)CCC2CCC(C(=O)NC(c3ccccc3)c3ccccc3)N2C1=O
IC50 [1]: 9720 nM | IC50 [2]: > 10000 nM | IC50 [3]: 5560 nM | IC50 [4]: 4400 nM | IC50 [5]: 1090 nM | IC50 [6]: < 31.6 nM | viability, T/C [7]: 96% | viability, T/C [8]: 100% | viability, T/C [9]: 85.2% | viability, T/C [10]: 91.3% | viability, T/C (second compound 0.00316 µM, first compound 3.16 µM): 93.5% | viability, T/C (second compound 0.00316 µM, first compound 10 µM): 48.9% | viability, T/C [11]: 92.9% | viability, T/C [12]: 77.4% | viability, T/C [13]: 83.3% | viability, T/C [14]: 97.1% | viability, T/C (second compound 0.01 µM, first compound 3.16 µM): 62.5% | viability, T/C (second compound 0.01 µM, first compound 10 µM): 56.9% | viability, T/C [15]: 93.1% | viability, T/C [16]: 70.1% | viability, T/C [17]: 77.4% | viability, T/C [18]: 73.7% | viability, T/C (second compound 0.0316 µM, first compound 3.16 µM): 71.7% | viability, T/C (second compound 0.0316 µM, first compound 10 µM): 28.8% | viability, T/C [19]: 68.7% | viability, T/C [20]: 54.2% | viability, T/C [21]: 59.9% | viability, T/C [22]: 62.8% | viability, T/C (second compound 0.1 µM, first compound 3.16 µM): 57.6% | viability, T/C (second compound 0.1 µM, first compound 10 µM): 30.4% | viability, T/C [23]: 57.2% | viability, T/C [24]: 42.9% | viability, T/C [25]: 62.1% | viability, T/C [26]: 48.9% | viability, T/C (second compound 0.316 µM, first compound 3.16 µM): 39% | viability, T/C (second compound 0.316 µM, first compound 10 µM): 23.5% | viability, T/C [27]: 49% | viability, T/C [28]: 28.6% | viability, T/C [29]: 32.2% | viability, T/C [30]: 35% | viability, T/C (second compound 1 µM, first compound 3.16 µM): 30.6% | viability, T/C (second compound 1 µM, first compound 10 µM): 13.5%

COc1c(OCCCN2CCOCC2)ccc2c3n(c(=NC(=O)c4cnc(N)nc4)nc12)CCN3 + CNC(C)C(=O)NC1CN(S(=O)(=O)c2cccc(S(=O)(=O)N3CCC4CCC(C(=O)NC(c5ccccc5)c5ccccc5)N4C(=O)C(NC(=O)C(C)NC)C3)c2)CCC2CCC(C(=O)NC(c3ccccc3)c3ccccc3)N2C1=O
IC50 [1]: 79.4 nM | IC50 [2]: 68.4 nM | IC50 [3]: 68.7 nM | IC50 [4]: 5.31 nM | IC50 [5]: 43 nM | IC50 [6]: < 3.16 nM | viability, T/C [31]: 80.1% | viability, T/C [32]: 81% | viability, T/C [7]: 68.1% | viability, T/C [8]: 43.5% | viability, T/C [9]: 28.3% | viability, T/C [10]: 15.5% | viability, T/C [33]: 72.6% | viability, T/C [34]: 103% | viability, T/C [11]: 61.4% | viability, T/C [12]: 42.6% | viability, T/C [13]: 22.7% | viability, T/C [14]: 13.3% | viability, T/C [35]: 76.5% | viability, T/C [36]: 73.2% | viability, T/C [15]: 77% | viability, T/C [16]: 37.7% | viability, T/C [17]: 18.2% | viability, T/C [18]: 11% | viability, T/C [37]: 53.8% | viability, T/C [38]: 44.8% | viability, T/C [19]: 38.9% | viability, T/C [20]: 34.2% | viability, T/C [21]: 16.9% | viability, T/C [22]: 10.7% | viability, T/C [39]: 56% | viability, T/C [40]: 44.4% | viability, T/C [23]: 68.8% | viability, T/C [24]: 32.3% | viability, T/C [25]: 13.8% | viability, T/C [26]: 11% | viability, T/C [41]: 33.2% | viability, T/C [42]: 36% | viability, T/C [27]: 27.2% | viability, T/C [28]: 19.2% | viability, T/C [29]: 9.14% | viability, T/C [30]: 5.37%

Cn1ncnc1[C@H]1c2n[nH]c(=O)c3cc(F)cc(c23)N[C@@H]1c1ccc(F)cc1
viability, T/C (compound 0.000316 µM): 99% and 111% and 93.9% | viability, T/C (compound 0.001 µM): 81.6% and 81.9% and 107% | viability, T/C (compound 0.00316 µM): 80.5% and 107% and 99% | viability, T/C (compound 0.01 µM): 89.2% and 87.3% and 89% | viability, T/C (compound 0.0316 µM): 68.7% and 96.5% and 83% | viability, T/C (compound 0.1 µM): 70.7% and 81% and 56.7% | IC50 (curve of compound): > 100 nM

O=C(c1ccc(F)c(F)c1Nc1ccc(I)cc1F)N1CC(O)([C@@H]2CCCCN2)C1 + CNC(C)C(=O)NC1CN(S(=O)(=O)c2cccc(S(=O)(=O)N3CCC4CCC(C(=O)NC(c5ccccc5)c5ccccc5)N4C(=O)C(NC(=O)C(C)NC)C3)c2)CCC2CCC(C(=O)NC(c3ccccc3)c3ccccc3)N2C1=O
IC50 [1]: 203 nM | IC50 [2]: 244 nM | IC50 [3]: 258 nM | IC50 [4]: 74.4 nM | IC50 [5]: 78.1 nM | IC50 [6]: < 3.16 nM | viability, T/C [31]: 75.5% | viability, T/C [32]: 69.5% | viability, T/C [7]: 63.3% | viability, T/C [8]: 71.5% | viability, T/C [9]: 37.5% | viability, T/C [10]: 13.9% | viability, T/C [33]: 100% | viability, T/C [34]: 73.2% | viability, T/C [11]: 75.2% | viability, T/C [12]: 91.7% | viability, T/C [13]: 39.8% | viability, T/C [14]: 23.4% | viability, T/C [35]: 92% | viability, T/C [36]: 72% | viability, T/C [15]: 73.6% | viability, T/C [16]: 90% | viability, T/C [17]: 43.1% | viability, T/C [18]: 14.7% | viability, T/C [37]: 72.3% | viability, T/C [38]: 83.5% | viability, T/C [19]: 56.3% | viability, T/C [20]: 49.9% | viability, T/C [21]: 19% | viability, T/C [22]: 8.71% | viability, T/C [39]: 60.1% | viability, T/C [40]: 63.7% | viability, T/C [23]: 47.8% | viability, T/C [24]: 47.9% | viability, T/C [25]: 38.6% | viability, T/C [26]: 7.49% | viability, T/C [41]: 37.1% | viability, T/C [42]: 42.3% | viability, T/C [27]: 37.9% | viability, T/C [28]: 33.5% | viability, T/C [29]: 14.8% | viability, T/C [30]: 5.83%
